Source: patent US10988459B2 (priority 2015, dated 2021)
pKi: −log10 of the molar value.

What follows are molecules tested against human RIP1 kinase domain (2-375) (Homo sapiens (Human), UniProt Q13546) (assay: biochemical). Conditions: tight-binding apparent inhibition constant; human RIP1 kinase domain (2-375) 50 nM, 50 uM ATP, 2 hours; read-out: Ki.
Assay type: biochemical
Method in brief: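 50 nM purified kinase domain from baculovirus-infected insect cells, incubated 2 h with compound in 50 mM Hepes pH 7.5, 30 mM MgCl2, 1 mM DTT, 50 uM ATP, 0.002% Brij-35, 0.5% DMSO. ADP formation read by Transcreener FP at 633 nm excitation. Ki^app fitted with the Morrison tight-binding equation.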

human RIP1 kinase domain (2-375), sequence (Q13546 2-375): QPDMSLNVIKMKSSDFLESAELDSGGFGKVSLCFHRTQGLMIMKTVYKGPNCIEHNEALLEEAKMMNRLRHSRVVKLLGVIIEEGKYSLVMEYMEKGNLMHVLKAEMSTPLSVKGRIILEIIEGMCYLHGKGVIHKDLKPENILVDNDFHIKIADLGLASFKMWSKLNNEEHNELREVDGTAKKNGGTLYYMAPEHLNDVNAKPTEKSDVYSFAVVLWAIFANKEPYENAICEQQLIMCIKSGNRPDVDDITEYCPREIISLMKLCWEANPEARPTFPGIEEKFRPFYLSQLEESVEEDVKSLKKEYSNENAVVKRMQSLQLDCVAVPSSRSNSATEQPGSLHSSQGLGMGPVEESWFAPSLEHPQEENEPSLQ

Structure (SMILES) | pKi
CN1C(=O)[C@H](NC(=O)c2ncn(Cc3c(F)cccc3F)n2)CCn2ccnc21 [Example 602, 1-[(2,6-difluorophenyl)methyl]-N-[(7R)-9-methyl-8-oxo-6,7-dihydro-5H-imidazo[1,2-a][1,3]diazepin-7-yl]-1,2,4-triazole-3-carboxamide] | 7.51
CN1C(=O)[C@@H](NC(=O)c2ncn(Cc3ccccc3C#N)n2)CCn2nccc21 [Example 603, 1-[(2-cyanophenyl)methyl]-N-(6S)-4-methyl-5-oxo-7,8-dihydro-6H-pyrazolo[1,5-a][1,3]diazepin-6-yl-1,2,4-triazole-3-carboxamide] | 6.43
Cc1ccccc1Cn1cnc(C(=O)N[C@H]2CCn3nc(C4CC4)cc3N(C)C2=O)n1 [Example 604] | 7.68
CC(C)n1ncc2cnc(C(=O)N[C@H]3COc4cc(F)cc(F)c4NC3=O)nc21 [Example 605, 1-isopropyl-N-[(3S)-6,8-difluoro-4-oxo-3,5-dihydro-2H-1,5-benzoxazepin-3-yl]pyrazolo[3,4-d]pyrimidine-6-carboxamide] | 8.02
Cc1cc(F)c2c(c1)OC[C@H](NC(=O)c1ncc3cnn(C(C)C)c3n1)C(=O)N2 [Example 606, 1-isopropyl-N-[(3S)-6-fluoro-8-methyl-4-oxo-3,5-dihydro-2H-1,5-benzoxazepin-3-yl]pyrazolo[3,4-d]pyrimidine-6-carboxamide] | 8.32
CC(C)n1ncc2cnc(C(=O)N[C@H]3CCc4cc(F)cc(F)c4NC3=O)nc21 [Example 607, 1-isopropyl-N-[(3S)-7,9-difluoro-2-oxo-1,3,4,5-tetrahydro-1-benzazepin-3-yl]pyrazolo[3,4-d]pyrimidine-6-carboxamide] | 7.55
Cc1nc(C)n2c1N(C)C(=O)[C@H](NC(=O)c1ncn(Cc3ccccc3)n1)CC2 [Example 608, 1-benzyl-N-(3R)-1,7,9-trimethyl-2-oxo-4,5-dihydro-3H-imidazo[1,5-a][1,3]diazepin-3-yl-1,2,4-triazole-3-carboxamide] | 6.72
Cc1cc2n(n1)CC[C@H](NC(=O)c1ncc3cnn(-c4c(F)cccc4F)c3n1)C(=O)N2C [Example 609, 1-(2,6-difluorophenyl)-N-[(6S)-2,4-dimethyl-5-oxo-7,8-dihydro-6H-pyrazolo[1,5-a][1,3]diazepin-6-yl]pyrazolo[3,4-d]pyrimidine-6-carboxamide] | 7.15
Cc1cc2n(n1)CC[C@H](NC(=O)c1nc3n(n1)[C@@H](c1ccccc1)CC3)C(=O)N2C [Example 615, (5R)-5-phenyl-N-[(6S)-2,4-dimethyl-5-oxo-7,8-dihydro-6H-pyrazolo[1,5-a][1,3]diazepin-6-yl]-6,7-dihydro-5H-pyrrolo[1,2-b][1,2,4]triazole-2-carboxamide] | 7.96
CN1C(=O)[C@@H](NC(=O)c2ncc3c(n2)C2(CCC2)OC3)COc2ccccc21 [Example 616, N-[(3S)-5-methyl-4-oxo-2,3-dihydro-1,5-benzoxazepin-3-yl]spiro[5H-furo[3,4-d]pyrimidine-7,1′-cyclobutan]-2-carboxamide] | 8.24
O=C(N[C@H]1COc2cc(F)cc(F)c2NC1=O)c1ncc2c(n1)C1(CCC1)OC2 [Example 617, N-[(3S)-6,8-difluoro-4-oxo-3,5-dihydro-2H-1,5-benzoxazepin-3-yl]spiro[5H-furo[3,4-d]pyrimidine-7,1′-cyclobutane]-2-carboxamide] | 7.96
O=C(N[C@H]1CCc2cc(F)cc(F)c2NC1=O)c1ncc2c(n1)C1(CCC1)OC2 [Example 618] | 7.62
CCC[C@]1(C)OCc2cnc(C(=O)N[C@H]3COc4cc(F)cc(F)c4NC3=O)nc21 [Example 619, (7S)-7-methyl-7-propyl-N-[(3S)-6,8-difluoro-4-oxo-3,5-dihydro-2H-1,5-benzoxazepin-3-yl]-5H-furo[3,4-d]pyrimidine-2-carboxamide] | 6.74
CCC[C@@]1(C)OCc2cnc(C(=O)N[C@H]3COc4cc(F)cc(F)c4NC3=O)nc21 [Example 620, (7R)-7-methyl-7-propyl-N-[(3S)-6,8-difluoro-4-oxo-3,5-dihydro-2H-1,5-benzoxazepin-3-yl]-5H-furo[3,4-d]pyrimidine-2-carboxamide] | 7.85
